Results on three molecules are retold here after patent publication US20160025711A1, “FLUORESCENT MARKERS AND METHODS FOR IMAGING DISEASES” (BOARD OF SUPERVISORS OF LOUISIANA STATE UNIVERSITY AND …, priority 2013, published 2016).

Data set [1] can be described thus: Fluorescence spectra and quantum yield in pH 7.4, 0.1 M PBS. The class given is physicochemical. The following applies: for fluorescence quantum yield Φ: quinine sulfate as standard. An excerpt:
(§1) was used to examine possible quinone propionic acid quenchers and 1,8-naphthalimide reporters as well as linkers between the OeT quencher and the NI reporter, so as to ensure that quenching is thermodynamically feasible and efficient. In this equation, ED is the redox potential of the donor and EA that of the acceptor, ΔG00 is the energy of the first excited singlet state of the reporter, and e^2/εd is the Coulombic interaction energy of the ion pair, known to be 0.06 eV. The energy of the first excited singlet state of NI was measured to be 3.06 eV. […] The quinone was attached to the naphthalimide via an N-methylethanolamine linker through a carbamate to the amine of the naphthalimide ring. This linker imparts three properties on Q3NI: the linker is sufficiently short to allow for a high probability of electron transfer, the electron-withdrawing carbamate yields a favorable ΔGPeT, and the presence of the tertiary amide provides enhanced environmental stability. As a result, the fluorescence of Q3NI in pH 7.4, 0.1 M PBS is effectively quenched in comparison to that of the free NI reporter, as noted by their spectra in FIGS. 3B and 3C and respective fluorescence quantum yields Φ of 0.007 and 0.23 obtained using quinine sulfate as standard. […] The 33-fold fluorescence enhancement for NI versus Q3NI and very large Stokes shift of 116 nm (λmax abs=374 run, λmax em=490 nm) bode well for use of Q3NI as a multifunctional turn-on probe for sensing and imaging applications that utilize reductive stimuli capable of initiating removal of the reduced quinone group.

The nature of data set [2]: Voltammetric redox potentials and Rehm-Weller calculation of PeT energy. The class given is physicochemical.
Excerpt: Embodiments of the present invention provide a probe (Q3NI) having fluorescence signal of a naphthalimide reporter quenched via oxidative electron transfer (OeT) by a covalently attached quinone propionic acid motif. See, e.g. FIG. 3A. The Q3NI provides the novel mechanism of reporter quenching by carefully tuning the electronic and optical properties of the quinone (Q3) OeT quencher and the naphthalimide reporter (NI), due to extant naphthalimide reporters that are quenched by reductive electron-transfer (ReT). The Rehm-Weller equation,
as §1

Data set [3] can be described thus: pKa of secondary amine of reporter. The class given is physicochemical.
Data set [4] has as its system fixed samples. Briefly: Reporter retention in paraformaldehyde-fixed cell samples. It counts as cell-based. As to conditions: paraformaldehyde fixing; fixed samples stored for 10 months in the laboratory ambient. The source says: (§2) There was no indication of reporter in the nucleus, pointing to the lack of NQOI there; this is in contrast to previous work using immunohistochemical staining of penneabilized, fixed cells. The average cytosolic signal was 9 times higher in A549 cells versus NQOI-negative H596 cells, while it was 23 times higher in HT-29 cells compared to the NQOI-negative H596 cells. […] Accumulation of the basic (secondary amine pKa ˜11) NI occurred in acidic late endosomal and lysosomal vesicles, a beneficial outcome that leads to enhanced intracellular retention of NI. […] Collectively, there is great potential for use of our probe/reporter system for ex vivo quantitative analysis of excised tumor cells and long-term in vivo and in vitro imaging.

Data set [5] deals with human NAD(P)Rquinone oxidoreductase isozyme 1 (hNQO1) (Homo sapiens, UniProt P15559). In words: Michaelis-Menten kinetics of hNQO1 activation of the probe (NI reporter production). It counts as biochemical. An excerpt: In embodiments of the present in invention hNQO 1 reduces fluorescent probes cloked with a quinone moiety. In embodiments of the present invention, Q3NI is a probe capable of activation by hNQO1 to yield the NI reporter at a significant rate. Apparent kinetic parameters of Q3NI were obtained from Michaelis-Menten kinetic treatment of the time-dependent NI reporter production, namely the Michaelis constant (Km), maximum velocity (Vmax), catalytic constant (kcat), and substrate specificity (kcat/Km). The high rate of NI reporter production under in vitro conditions is readily apparent in FIG. 7; after 5 min, a fluorescent signal has been attained that is 22% of the maximum achievable, yielding 2.2×10^−7 M of released reporter.
human NAD(P)Rquinone oxidoreductase isozyme 1 (hNQO1), sequence (P15559 whole entry): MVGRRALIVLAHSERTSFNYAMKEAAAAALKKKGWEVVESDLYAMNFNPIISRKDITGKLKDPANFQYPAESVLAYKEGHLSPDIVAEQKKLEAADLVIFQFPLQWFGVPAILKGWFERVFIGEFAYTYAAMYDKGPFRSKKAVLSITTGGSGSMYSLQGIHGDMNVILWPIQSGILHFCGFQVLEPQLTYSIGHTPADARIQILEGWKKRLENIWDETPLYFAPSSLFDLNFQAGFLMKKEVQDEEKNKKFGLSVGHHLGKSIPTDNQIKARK

Data set [6] concerns A549. Briefly: Unaided-eye visualization of cultured cells with handheld 365 nm lamp. The class given is cell-based, human. As to conditions: 2×10^−5 M Q3NI, 10 min incubation; 5.72×10^6 total cells. As for the experimental part: (§3) Embodiments of the present invention may allow for cancer cells to be rapidly visualized and differentiated. […] After a 10 min incubation period in a cell culture solution containing 2×10^−5 M Q3NI, it was possible to differentiate between the various substrate-cultured cells (4.84 cm^2) using only a handheld fluorescent lamp emitting at 365 nm and the unaided eye. […] The ability to visually determine the presence of hNQO1 in a small number of cells is due to the marked difference in fluorescence from the unquenched NI reporter (Φ=0.23) and quenched Q3NI probe (Φ=0.007) and the large Stokes shift of the NI reporter that results in fluorescence emission in the visible spectrum (400 nm to ˜600 nm). These outcomes point to use of the Q3NI probe sensor in the real-time, visible (without the aid of imaging equipment), and accurate determination of tumor/healthy tissue borders so as to allow for surgical resection of tumors with small foci.

The subject of data set [7] is H596. The description is as above. It counts as cell-based, human. As to conditions: 2×10^−5 M Q3NI, 10 min incubation; 3.96×10^6 total cells. As to the method: as §3
For data set [8], the system named is HT-29. Described as above. It counts as cell-based, human. As to conditions: 2×10^−5 M Q3NI, 10 min incubation; 3.69×10^6 total cells. As to the method: as §3
For data set [9], the system named is A549. Briefly: Flow cytometry assay of Q3NI activation. As to conditions: 10 min or 60 min incubation; λex=405 nm, λem=457/60 nm; 10,000 cells. The class given is cell-based, human. As for the experimental part:
(§4) Flow cytometry assays were used to assess the applicability of the Q3NI probe to rapidly detect and quantify tumor cells containing hNQO1. See, FIG. 8. The probe was incubated in a suspension of HT-29, A549, H596, and H446 (a small-cell lung carcinoma known to be devoid of hNQO1 activity) cells for either 10 min or 60 min, and a flow cytometer was used to measure fluorescence (λex=405 nm, λem=457/60 nm) in 10,000 individual cells. […] Importantly, the sustained low fluorescence observed with the H446 cells (FIG. 8) points to the intracellular stability of Q3NI (lack of nonspecific activation).
On the technique in general: Flow cytometry measures light scatter and fluorescence of single cells or particles in a stream.

Data set [10] concerns H446. In words: Flow cytometry assay of Q3NI activation. It counts as cell-based, human. As to conditions: 10 min or 60 min incubation; λex=405 nm, λem=457/60 nm; 10,000 cells. As to the method: as §4
Data set [11] deals with H596. In words: Flow cytometry assay of Q3NI activation. The class given is cell-based, human. The following applies: 10 min or 60 min incubation; λex=405 nm, λem=457/60 nm; 10,000 cells. As to the method: as §4
Data set [12] concerns HT-29. In words: Flow cytometry assay of Q3NI activation. The class given is cell-based, human. As to conditions: 10 min or 60 min incubation; λex=405 nm, λem=457/60 nm; 10,000 cells. As to the method: as §4
Data set [13] has as its system A549 cells. Briefly: Wide-field fluorescence imaging of fixed cells. The class given is cell-based, human. The following applies: 10 min exposure.
Excerpt: as §2

Data set [14] has as its system H596 cells. Briefly: Wide-field fluorescence imaging of fixed cells. The class given is cell-based, human. The following applies: 10 min exposure.
Excerpt: as §2

The test system of data set [15] is HT-29 cells. Briefly: Wide-field fluorescence imaging of fixed cells. The class given is cell-based, human. As to conditions: 10 min exposure.
Excerpt: as §2

For data set [16], the system named is A549 cells. In words: 2-photon microscopy of living cells. The class given is cell-based, human. The following applies: 2.0×10^−5 M Q3NI in complete growth medium. The source says:
(§5) Multiphoton (MP) microscopy imaging of cells and tissues may be more advantageous than traditional fluorescence microscopy, because use of the characteristic long-wavelength photons offers higher fluorophore and cellular photostability that provides extended imaging duration, less background signal from out-of-focus excitation and scattering events, and deeper penetration depth. In addition, MP imaging is ideal for direct observation of targets in their physiological environment and ex vivo thick-specimen sampling where 2D and 3D maps can be generated. […] As before, the signal appears somewhat heterogeneous throughout the cytosolic space of the HT-29 and A549 cells due to NI accumulation in acidic organelles. To ensure Q3NI and NI had little effect on cell health, cells were incubated in a 2.0×10^−5 M Q3NI solution in complete growth medium for 1 h and 1 day, and then cell viability was assessed with a trypan blue assay. After 1 h, cell viability for HT-29, A549, and H596 was 97.7%, 98.8%, and 100%, while it was 97.7%, 98.7%, and 98.4% after 24 h.

In data set [17] the test system is H446. In words: 2-photon microscopy of living cells. The following applies: 2.0×10^−5 M Q3NI in complete growth medium. The class given is cell-based, human.
Excerpt: as §5

Data set [18] has as its system H596. In words: 2-photon microscopy of living cells. It counts as cell-based, human. The following applies: 2.0×10^−5 M Q3NI in complete growth medium.
Excerpt: as §5

In data set [19] the test system is HT-29 cell line. Briefly: 2-photon microscopy of living cells. It counts as cell-based, human. The following applies: 2.0×10^−5 M Q3NI in complete growth medium.
Excerpt: as §5

For data set [20], the system named is A549. In words: Trypan blue cell viability assay. The class given is cell-based, human. The following applies: 2.0×10^−5 M Q3NI.
Excerpt: as §5

Data set [21] deals with H596. In words: Trypan blue cell viability assay. It counts as cell-based, human. The following applies: 2.0×10^−5 M Q3NI.
Excerpt: as §5

Data set [22] relates to HT-29. Briefly: Trypan blue cell viability assay. The class given is cell-based, human. The following applies: 2.0×10^−5 M Q3NI.
Excerpt: as §5

For data set [23] the following is noted: other dyes applied to cancer detection and localization; cited from earlier work.

Read-outs that look alike come from different tables or passages of the source.

In the case of `CCCCN1C(=O)c2cccc3c(NC(=O)OCCNC)ccc(c23)C1=O` [NI], in [1] (pH 7.4, 0.1 M PBS), the “fluorescence enhancement for NI versus Q3NI” value is on record as 33 fold and the “fluorescence quantum yield Φ” value came out at 0.23. Besides, in data set [1] (λmax abs=374, λmax em=490 nm), the Stokes shift turned out to be 116 nm. Further, in data set [2], the “energy of the first excited singlet state” value is listed as 3.06 eV. In addition, in data set [2] (voltammetric measurements), the “ED, redox potential of the donor” value is reported as 1.74 V. Further, the “secondary amine pKa” value in [3] is recorded as approximately 11. In addition, the “efflux of reporter from cells / fluorescence retention” value in [4] is given as “no apparent efflux”.

Turning to `CCCCN1C(=O)c2cccc3c(NC(=O)OCCN(C)C(=O)CC(C)(C)C4=C(C)C(=O)C(C)=C(C)C4=O)ccc(c23)C1=O` [Q3NI], in [5] (after 5 min, in vitro), the “fluorescent signal as % of the maximum achievable” value was 22%. For the same molecule, the released reporter in data set [5] (after 5 min, in vitro) came to 220 nM. In addition, the “catalytic constant (kcat)” value in data set [5] (apparent, FIG. 7) came out at 0.019 ± 0.001 s⁻¹. Further, the “maximum velocity (Vmax)” value in data set [5] (apparent, FIG. 7) was 0.037±0.002 μmol min^−1 mg·NQO^−1. Further, the Michaelis-Menten constant (Km) (as a rule, the substrate concentration at which the rate is half of its maximum) in [5] (apparent, from time-dependent NI reporter production, FIG. 7, read-out: Michaelis constant (Km)) came out at 3.86 ± 0.79 µM. In addition, the “fluorescence quantum yield Φ” value in data set [1] (pH 7.4, 0.1 M PBS) worked out at 0.007. Besides, the “ΔGPeT, energy change for the OeT process” value in data set [2] (Rehm-Weller equation) is given as −0.37 eV. Also, the “EA, redox potential of the acceptor (quinone propionic acid group)” value in data set [2] (voltammetric measurements) is reported as −1.01 V. For the same molecule, the “appearance under 365 nm handheld lamp, unaided eye” value in [6] is recorded as “fluorescent blue”; in data set [7], “no apparent emission”; in [8] it was “fluorescent blue”. The “flow cytometry fluorescence histogram” value in [9] was “high-intensity, unimodal distribution of signals”; in data set [10], “minimal fluorescence”; in data set [11], “minimal fluorescence”; in data set [12], “high-intensity, unimodal distribution of signals”. The “average cytosolic signal versus NQO1-negative H596 cells” value in data set [13] is listed as 9 times; in [15], 23 times. Besides, the “intracellular NI fluorescence signal” value in data set [14] is on record as “minimal signal”. In [16], the “average fluorescence signal compared to H596 cells” value came to 13 fold. For the same molecule, the “average fluorescence signal versus H446 cells” value in [16] is 3.66×10^4 fold. Moreover, the “fluorescence signal from NI” value in data set [17] and in data set [18] was “minimal signal” each time. The “cytosolic intensity compared to H446 cells” value in data set [19] is 4.51×10^4 fold. The “cytosolic intensity compared to H596 cells” value in data set [19] turned out to be 15 fold. Also, the cell viability – broadly, the share of living cells, or the viability signal relative to a control – in data set [20] (after 1 h) turned out to be 98.8%; in [20] (after 24 h) it was 98.7%; in data set [21] (after 1 h), 100%; in [21] (after 24 h), 98.4%; in data set [22] (after 1 h) it was 97.7%; in [22] (after 24 h), 97.7%.

As to `CC1(C)C(/C=C/C=C/C=C/C=C2\N(CCCCS(=O)(=O)O)c3ccc4ccccc4c3C2(C)C)=[N+](CCCCS(=O)(=O)[O-])c2ccc3ccccc3c21` [indocyanine green], the “fluorescence quantum yield Φ” value in [23] is given as 0.0028.
